According to patent US20080207614A1, “QUINAZOLINE DERIVATIVES FOR THE TREATMENT AND PREVENTION OF DIABETES AND OBESITY” (SK CHEMICALS CO., LTD., priority 2004, published 2008):

Test system: C2C12 muscle cells
Test: Analysis of glucose absorption (2-deoxyglucose) in differentiated C2C12 muscle cells
Format: cell-based
Settings: test materials 10 μM, times relative to control group
Description: C2C12 muscle cells were cultured in DMEM (Dulbecco's modified Eagle's medium) containing 10% bovine calf serum. When the cell density increased to about 85 to 90%, the culture medium was replaced with 1% bovine calf serum and cell differentiation was induced for 6 days. Completely differentiated cells were cultured for 3 hours with Krebs-Ringer buffer (KRB) containing 5 mM glucose. The test materials were added at a concentration of 10 μM. 30 minutes later, 0.2 μCi 2-deoxyglucose was added. KRB was removed 20 minutes later and the cells were washed for 3 times with cold PBS. The cells were lysed with 0.5N NaOH and counted using a radioactive counter.

Row | SMILES | Glucose absorption
1 | CCCCNc1nc(SCC)nc2ccccc12 [Compound 19, Butyl-(2-ethylsulfanylquinazolino-4-yl)-amine] | 1.4
2 | CCSc1nc(NCC(C)C)c2ccccc2n1 [Compound 21, (2-Ethylsulfanylquinazolino-4-yl)-isobutylamine] | 1.2
3 | CCSc1nc(NC(C)c2ccccc2)c2ccccc2n1 (centres unmarked) [Compound 23, (2-Ethylsulfanylquinazolino-4-yl)-(1-phenylethyl)-amine] | 0.8
4 | CCSc1nc(NC2CCCCC2)c2ccccc2n1 [Compound 27, Cyclohexyl-(2-ethylsulfanylquinazolino-4-yl)-amine] | 1.0
5 | CCSc1nc(NC2CCCC2)c2ccccc2n1 [Compound 28, Cyclopentyl-(2-ethylsulfanylquinazolino-4-yl)-amine] | 1.1
6 | CCCNc1nc(SCC)nc2ccccc12 [Compound 31, (2-Ethylsulfanylquinazolino-4-yl)-propylamine] | 1.1
7 | CCSc1nc(NCCCc2ccccc2)c2ccccc2n1 [Compound 32, (2-Ethylsulfanylquinazoline-4-yl)-(3-phenylpropyl)-amine] | 1.1
8 | CCSc1nc(NCCCOC(C)C)c2ccccc2n1 [Compound 33, (2-Ethylsulfanylquinazolino-4-yl)-(3-isopropoxypropyl)-amine] | 1.2
9 | CCSc1nc(NCCOC)c2ccccc2n1 [Compound 34, (2-Ethylsulfanylquinazolino-4-yl)-(2-methoxy-ethyl)-amine] | 1.3
10 | CCSc1nc(NCCCN2CCOCC2)c2ccccc2n1 [Compound 36, (2-Ethylsulfanylquinazolino-4-yl)-(3-morpholino-4-ylpropyl)-amine] | 1.4
11 | CCSc1nc(NCc2cc(OC)cc(OC)c2)c2ccccc2n1 [Compound 38, (3,5-Dimethoxybenzyl)-(2-ethylsulfanylquinazolino-4-yl)-amine] | 1.5
12 | CCSc1nc(NCc2ccccc2F)c2ccccc2n1 [Compound 39, (2-Ethylsulfanylquinazolino-4-yl)-(2-fluorobenzyl)-amine] | 0.9
13 | CCSc1nc(NC(CC)COC)c2ccccc2n1 (centres unmarked) [Compound 40, (2-Ethylsulfanylquinazolino-4-yl)-(1-methoxymethylpropyl)-amine] | 1.2
14 | CCSc1nc(NC2CCN(Cc3ccccc3)CC2)c2ccccc2n1 [Compound 41, (1-Benzyl-piperidino-4-yl)-(2-ethylsulfanylquinazolino-4-yl)-amine] | 1.1
15 | C=CCNc1nc(SCC)nc2ccccc12 [Compound 42, Allyl-(2-ethylsulfanylquinazolino-4-yl)-amine] | 1.1
16 | CCCCCCCCCCCCCCCCNc1nc(SCC)nc2ccccc12 [Compound 43, (2-Ethylsulfanylquinazolino-4-yl)-hexadecylamine] | 1.1
17 | CCSc1nc(NCCN2CCCCC2)c2ccccc2n1 [Compound 44, (2-Ethylsulfanylquinazolino-4-yl)-(2-piperidino-1-ylethyl)-amine] | 1.3
18 | CCSc1nc(NCCN2CCCC2)c2ccccc2n1 [Compound 45, (2-Ethylsulfanylquinazolino-4-yl)-(2-pyrrolidino-1-ylethyl)-amine] | 1.1
19 | CCSc1nc(NCCc2ccccn2)c2ccccc2n1 [Compound 46, (2-Ethylsulfanylquinazolino-4-yl)-(2-pyridino-2-ylethyl)-amine] | 1.1
20 | CCSc1nc(NCCO)c2ccccc2n1 [Compound 47, 2-(2-Ethylsulfanylquinazolino-4-ylamino)-ethanol] | 0.9
21 | CCSc1nc(NCCCN2CCCCC2C)c2ccccc2n1 (centres unmarked) [Compound 48, (2-Ethylsulfanylquinazolino-4-yl)-[3-(2-methyl-piperidino-1-yl)-propyl]-amine] | 1.0
22 | CCSc1nc(NCCOCCO)c2ccccc2n1 [Compound 50, 2-[2-(2-Ethylsulfanylquinazolino-4-ylamino)-ethoxy]-ethanol] | 1.2
23 | c1ccc(-c2nc(NC3CCCCC3)c3ccccc3n2)cc1 [Compound 51, Cyclohexyl-(2-phenylquinazolino-4-yl)-amine] | 1.0
24 | c1ccc(CCCCNc2nc(-c3ccccc3)nc3ccccc23)cc1 [Compound 52, (4-Phenylbutyl)-(2-phenylquinazolino-4-yl)-amine] | 1.3
25 | c1ccc(CCCCCNc2nc(-c3ccccc3)nc3ccccc23)cc1 [Compound 53, (5-Phenyl-pentyl)-(2-phenylquinazolino-4-yl)-amine] | 1.2
26 | Cc1ccc(CNc2nc(-c3ccccc3)nc3ccccc23)cc1 [Compound 54, (4-Methylbenzyl)-(2-phenylquinazolino-4-yl)-amine] | 1.2
27 | CC(C)CNc1nc(-c2ccccc2)nc2ccccc12 [Compound 55, Isobutyl-(2-phenylquinazolino-4-yl)-amine] | 1.2

Row | SMILES | Glucose absorption
28 | CCCCNc1nc(-c2ccccc2)nc2ccccc12 [Compound 56, Butyl-(2-phenylquinazolino-4-yl)-amine] | 1.1
29 | c1ccc(-c2nc(NCc3cccc4ccccc34)c3ccccc3n2)cc1 [Compound 57, Naphthaleno-1-ylmethyl-(2-phenylquinazolino-4-yl)-amine] | 1.0
30 | c1ccc(-c2nc(NCc3cccs3)c3ccccc3n2)cc1 [Compound 59] | 1.2
31 | CC(C)Nc1nc(-c2ccccc2)nc2ccccc12 [Compound 60, Isopropyl-(2-phenylquinazolino-4-yl)-amine] | 1.0
32 | CC(C)OCCCNc1nc(-c2ccccc2)nc2ccccc12 [Compound 62, (3-Isopropoxypropyl)-(2-phenylquinazolino-4-yl)-amine] | 1.1
33 | Fc1cccc(CNc2nc(-c3ccccc3)nc3ccccc23)c1 [Compound 63, (3-Fluorobenzyl)-(2-phenylquinazolino-4-yl)-amine] | 1.1
34 | FC(F)(F)c1cccc(CCNc2nc(-c3ccccc3)nc3ccccc23)c1 [Compound 64, (2-Phenylquinazolino-4-yl)-[2-(3-trifluoromethyl-phenyl)-ethyl]-amine] | 1.2
35 | c1ccc(-c2nc(NCc3ccc4c(c3)OCO4)c3ccccc3n2)cc1 [Compound 65, Benzo[1,3]dioxol-5-ylmethyl-(2-phenylquinazolino-4-yl)-amine] | 1.4
36 | FC(F)(F)c1cccc(CNc2nc(-c3ccccc3)nc3ccccc23)c1 [Compound 66, (2-Phenylquinazolino-4-yl)-(3-trifluoromethylbenzyl)-amine] | 1.3
37 | COCCNc1nc(-c2ccccc2)nc2ccccc12 [Compound 67, (2-Methoxy-ethyl)-(2-phenylquinazolino-4-yl)-amine] | 0.9
38 | c1ccc(CCNc2nc(-c3ccccc3)nc3ccccc23)cc1 [Compound 68, Phenethyl-(2-phenylquinazolino-4-yl)-amine] | 1.3
39 | c1ccc(Nc2nc(-c3ccccc3)nc3ccccc23)cc1 [Compound 69, Phenyl-(2-phenylquinazolino-4-yl)-amine] | 1.0
40 | COc1ccc(Nc2nc(-c3ccccc3)nc3ccccc23)cc1 [Compound 70, (4-Methoxyphenyl)-(2-phenylquinazolino-4-yl)-amine] | 1.0
41 | Cc1ccccc1Nc1nc(-c2ccccc2)nc2ccccc12 [Compound 71, (2-Phenylquinazolino-4-yl)-o-tollylamine] | 1.0
42 | CC(C)c1ccc(Nc2nc(-c3ccccc3)nc3ccccc23)cc1 [Compound 72, (4-Isopropyl-phenyl)-(2-phenylquinazolino-4-yl)-amine] | 1.1
43 | Cc1ccc(Nc2nc(-c3ccccc3)nc3ccccc23)c(C)c1 [Compound 73, (2,4-Dimethyl-phenyl)-(2-phenylquinazolino-4-yl)-amine] | 1.0
44 | CCCCCCCCCCCc1ccc(Nc2nc(-c3ccccc3)nc3ccccc23)cc1 [Compound 74, (2-Phenylquinazolino-4-yl)-(4-undecyl-phenyl)-amine] | 0.9
45 | CCc1ccc(Nc2nc(-c3ccccc3)nc3ccccc23)cc1 [Compound 75, (4-Ethyl-phenyl)-(2-phenylquinazolino-4-yl)-amine] | 1.3
46 | Fc1ccc(Nc2nc(-c3ccccc3)nc3ccccc23)cc1 [Compound 76, (4-Fluorophenyl)-(2-phenylquinazolino-4-yl)-amine] | 1.0
47 | COc1ccccc1Nc1nc(-c2ccccc2)nc2ccccc12 [Compound 77, (2-Methoxyphenyl)-(2-phenylquinazolino-4-yl)-amine] | 1.4
48 | Cc1cc(C)c(Nc2nc(-c3ccccc3)nc3ccccc23)c(C)c1 [Compound 78, (2-Phenylquinazolino-4-yl)-(2,4,6-trimethyl-phenyl)-amine] | 1.4
49 | CCCCc1ccc(Nc2nc(-c3ccccc3)nc3ccccc23)cc1 [Compound 79, (4-Butyl-phenyl)-(2-phenylquinazolino-4-yl)-amine] | 1.1
50 | c1ccc(Oc2ccccc2Nc2nc(-c3ccccc3)nc3ccccc23)cc1 [Compound 80, (2-Phenoxy-phenyl)-(2-phenylquinazolino-4-yl)-amine] | 1.0
51 | c1ccc(Oc2cccc(Nc3nc(-c4ccccc4)nc4ccccc34)c2)cc1 [Compound 81, (3-Phenoxy-phenyl)-(2-phenylquinazolino-4-yl)-amine] | 0.9
52 | c1ccc(Oc2ccc(Nc3nc(-c4ccccc4)nc4ccccc34)cc2)cc1 [Compound 82, (4-Phenoxy-phenyl)-(2-phenylquinazolino-4-yl)-amine] | 1.2
53 | Brc1cccc(Nc2nc(-c3ccccc3)nc3ccccc23)c1 [Compound 83, (3-Bromophenyl)-(2-phenylquinazolino-4-yl)-amine] | 0.7
